EC50 data for 27 molecules are collected here from patent US8927531B2, “Indanyloxydihydrobenzofuranylacetic acids” (Boehringer Ingelheim International GmbH, priority 2013, dated 2015).

This test deals with human GPR40 receptor (Homo sapiens, UniProt O14842). The experiment in a line: IP1 accumulation measurements using the IPOne assay system in 1321N1 cells stably expressing human GPR40 receptor. The note with it: stimulation 1 h at 37° C. Type of test: cell-based. The protocol: IP1 accumulation measurements using the IPOne assay system—1321N1 cells stably expressing human GPR40 receptor (Euroscreen, Belgium) are seeded 24 h before the assay in white 384-well plates in culture medium containing 10% FCS, 1% Na-Pyruvate and 400 μg/mL G418. IP1 is assayed according to the manufacturer's description (Cisbio Bioassays, France). In brief, the assay is started by substitution of the culture medium by stimulation buffer (Hepes 10 mM, CaCl2 1 mM, MgCl2 0.5 mM, KCl 4.2 mM, NaCl 146 mM, glucose 5.5 mM and LiCl 50 mM, pH 7.4). Cells are stimulated for 1 h at 37° C., 5% CO2 by addition of the compounds that are diluted in stimulation buffer containing LiCl. Assays are stopped by adding HTRF-conjugates (IP1-d2 and Anti-IP1 cryptate Tb) and lysis buffer, provided by the manufacturer. After an incubation time of 1 h at room temperature plates are measured using an EnVision™, Perkin Elmer. The obtained fluorescence ratios at 665/615 […] are then used to calculate the pEC50 values using Assay Explorer 3.3 Software (Accelrys, Inc.) by interpolation using an IP1 reference curve and subsequent sigmoidal curve fitting allowing for a variable hill slope.
human GPR40 receptor, sequence (O14842 whole entry): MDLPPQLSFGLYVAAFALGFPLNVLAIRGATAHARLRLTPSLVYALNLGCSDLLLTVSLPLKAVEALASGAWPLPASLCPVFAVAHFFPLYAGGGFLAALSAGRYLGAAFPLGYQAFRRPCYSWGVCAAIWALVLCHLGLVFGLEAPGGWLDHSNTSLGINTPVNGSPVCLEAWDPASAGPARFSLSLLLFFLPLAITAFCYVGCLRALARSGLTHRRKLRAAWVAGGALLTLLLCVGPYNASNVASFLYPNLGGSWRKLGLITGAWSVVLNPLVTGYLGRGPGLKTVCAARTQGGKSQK

Broadly, the EC50 is the concentration giving half of the maximal effect. A lower EC50 goes with an effect from little substance. `O=C(O)C[C@@H]1COc2cc(O[C@@H]3CCc4c3ccc(C(F)(F)F)c4CN3CCOCC3)ccc21` [Example 1, {(S)-6-[(R)-4-Morpholin-4-ylmethyl-5-trifluoromethyl-indan-1-yloxy]-2,3-dihydro-benzofuran-3-yl}-acetic acid]: the EC50 was 3 nM.

In turn, `CC(C)(C)OC(=O)N1CCN(Cc2c(C(F)(F)F)ccc3c2CC[C@H]3Oc2ccc3c(c2)OC[C@H]3CC(=O)O)CC1` [Example 2, {(S)-6-[(R)-4-(4-tert-Butoxycarbonyl-piperazin-1-ylmethyl)-5-trifluoromethyl-indan-1-yloxy]-2,3-dihydro-benzofuran-3-yl}-acetic acid] showed an EC50 of 20 nM.

In turn, `O=C(O)C[C@@H]1COc2cc(O[C@@H]3CCc4c3ccc(C(F)(F)F)c4CN3CCSCC3)ccc21` [Example 3, {(S)-6-[(R)-4-Thiomorpholin-4-ylmethyl-5-trifluoromethyl-indan-1-yloxy]-2,3-dihydro-benzofuran-3-yl}-acetic acid] yielded an EC50 of 3 nM.

`O=C(O)C[C@@H]1COc2cc(O[C@@H]3CCc4c3ccc(C(F)(F)F)c4CN3CCCC3)ccc21` [Example 4, {(S)-6-[(R)-4-Pyrrolidin-1-ylmethyl-5-trifluoromethyl-indan-1-yloxy]-2,3-dihydro-benzofuran-3-yl}-acetic acid]: a half-maximal effect (EC50) was put at 92 nM.

`O=C(O)C[C@@H]1COc2cc(O[C@@H]3CCc4c3ccc(C(F)(F)F)c4CN3CCCCC3)ccc21` [Example 5, {(S)-6-[(R)-4-Piperidin-1-ylmethyl-5-trifluoromethyl-indan-1-yloxy]-2,3-dihydro-benzofuran-3-yl}-acetic acid] registered an EC50 of 5 nM.

The molecule `Cc1nc2c(s1)CN(Cc1c(C(F)(F)F)ccc3c1CC[C@H]3Oc1ccc3c(c1)OC[C@H]3CC(=O)O)CC2` [Example 6, {(S)-6-[(R)-4-(2-Methyl-4,5,6,7-tetrahydro-thiazolo[5,4-c]pyridin-5-ylmethyl)-5-trifluoromethyl-indan-1-yloxy]-2,3-dihydro-benzofuran-3-yl}-acetic acid] yielded an EC50 of 2 nM.

Molecule `O=C(O)C[C@@H]1COc2cc(O[C@@H]3CCc4c3ccc(C(F)(F)F)c4CN3CCC(F)(F)CC3)ccc21` [Example 7, {(S)-6-[(R)-4-(4,4-Difluoro-piperidin-1-ylmethyl)-5-trifluoromethyl-indan-1-yloxy]-2,3-dihydro-benzofuran-3-yl}-acetic acid] registered an EC50 of 3 nM.

`O=C(O)C[C@@H]1COc2cc(O[C@@H]3CCc4c3ccc(C(F)(F)F)c4CN3CCC4(CC3)CC4)ccc21` [Example 8, {(S)-6-[(R)-4-(6-Aza-spiro[2.5]oct-6-ylmethyl)-5-trifluoromethyl-indan-1-yloxy]-2,3-dihydro-benzofuran-3-yl}-acetic acid] returned an EC50 of 5 nM. This EC50 lies about 1.7-fold higher than the previous one.

`O=C(O)C[C@@H]1COc2cc(O[C@@H]3CCc4c3ccc(C(F)(F)F)c4CN3CCCOCC3)ccc21` [Example 9, {(S)-6-[(R)-[1,4]Oxazepan-4-ylmethyl-5-trifluoromethyl-indan-1-yloxy]-2,3-dihydro-benzofuran-3-yl}-acetic acid] showed an EC50 of 3 nM.

For the molecule `COC1CCN(Cc2c(C(F)(F)F)ccc3c2CC[C@H]3Oc2ccc3c(c2)OC[C@H]3CC(=O)O)CC1` [Example 10, {(S)-6-[(R)-4-(4-Methoxy-piperidin-1-ylmethyl)-5-trifluoromethyl-indan-1-yloxy]-2,3-dihydro-benzofuran-3-yl}-acetic acid], it took 5 nM to reach a half-maximal effect (EC50).

The molecule `O=C(O)C[C@@H]1COc2cc(O[C@@H]3CCc4c3ccc(C(F)(F)F)c4CN3CCC4(CCCO4)CC3)ccc21` [Example 11, {(S)-6-[(R)-4-(1-Oxa-8-aza-spiro[4.5]dec-8-ylmethyl)-5-trifluoromethyl-indan-1-yloxy]-2,3-dihydro-benzofuran-3-yl}-acetic acid] came in with an EC50 of 6 nM.

As to `O=C(O)C[C@@H]1COc2cc(O[C@@H]3CCc4c3ccc(C(F)(F)F)c4CN3CC4CC4C3)ccc21` (stereo partly drawn) [Example 12, {(S)-6-[(R)-4-(3-Aza-bicyclo[3.1.0]hex-3-ylmethyl)-5-trifluoromethyl-indan-1-yloxy]-2,3-dihydro-benzofuran-3-yl}-acetic acid], the EC50 was found to be 20 nM.

In turn, `O=C(O)C[C@@H]1COc2cc(O[C@@H]3CCc4c3ccc(C(F)(F)F)c4CN3CCC(CO)CC3)ccc21` [Example 13, {(S)-6-[(R)-4-(4-Hydroxymethyl-piperidin-1-ylmethyl)-5-trifluoromethyl-indan-1-yloxy]-2,3-dihydro-benzofuran-3-yl}-acetic acid] gave an EC50 of 9 nM. Against the preceding molecule, the EC50 is about 2.2-fold lower.

In turn, `CC1(O)CCN(Cc2c(C(F)(F)F)ccc3c2CC[C@H]3Oc2ccc3c(c2)OC[C@H]3CC(=O)O)CC1` [Example 14, {(S)-6-[(R)-4-(4-Hydroxy-4-methyl-piperidin-1-ylmethyl)-5-trifluoromethyl-indan-1-yloxy]-2,3-dihydro-benzofuran-3-yl}-acetic acid] showed an EC50 of 15 nM.

Consider `O=C(O)C[C@@H]1COc2cc(O[C@@H]3CCc4c3ccc(C(F)(F)F)c4CN3CCNCC3)ccc21` [Example 15, {(S)-6-[(R)-4-piperazin-1-ylmethyl-5-trifluoromethyl-indan-1-yloxy]-2,3-dihydro-benzofuran-3-yl}-acetic acid], for which it took 468 nM to reach a half-maximal effect (EC50).

Turning to `CC(=O)N1CCN(Cc2c(C(F)(F)F)ccc3c2CC[C@H]3Oc2ccc3c(c2)OC[C@H]3CC(=O)O)CC1` [Example 16, {(S)-6-[(R)-4-(4-Acetyl-piperazin-1-ylmethyl)-5-trifluoromethyl-indan-1-yloxy]-2,3-dihydro-benzofuran-3-yl}-acetic acid], it took 16 nM to reach a half-maximal effect (EC50). Against the preceding molecule, the EC50 is about 29-fold lower.

`COC(=O)N1CCN(Cc2c(C(F)(F)F)ccc3c2CC[C@H]3Oc2ccc3c(c2)OC[C@H]3CC(=O)O)CC1` [Example 17, {(S)-6-[(R)-4-(4-Methoxycarbonyl-piperazin-1-ylmethyl)-5-trifluoromethyl-indan-1-yloxy]-2,3-dihydro-benzofuran-3-yl}-acetic acid] registered an EC50 of 4 nM.

`C[C@@H]1CN(Cc2c(C(F)(F)F)ccc3c2CC[C@H]3Oc2ccc3c(c2)OC[C@H]3CC(=O)O)C[C@H](C)O1` [Example 18, {(S)-6-[(R)-4-(cis-2,6-Dimethyl-morpholin-4-ylmethyl)-5-trifluoromethyl-indan-1-yloxy]-2,3-dihydro-benzofuran-3-yl}-acetic acid] gave an EC50 of 11 nM.

In turn, `O=C(O)C[C@@H]1COc2cc(O[C@@H]3CCc4c3ccc(C(F)(F)F)c4CN3CCCCCC3)ccc21` [Example 19, {(S)-6-[(R)-4-Azepan-1-ylmethyl-5-trifluoromethyl-indan-1-yloxy]-2,3-dihydro-benzofuran-3-yl}-acetic acid] yielded an EC50 of 7 nM. This EC50 lies about 1.6-fold lower than the previous one.

`CCOC(=O)N1CCN(Cc2c(C(F)(F)F)ccc3c2CC[C@H]3Oc2ccc3c(c2)OC[C@H]3CC(=O)O)CC1` [Example 20, {(S)-6-[(R)-4-(4-Ethoxycarbonyl-piperazin-1-ylmethyl)-5-trifluoromethyl-indan-1-yloxy]-2,3-dihydro-benzofuran-3-yl}-acetic acid]: the EC50 stood at 9 nM.

On to `CCC(=O)N1CCN(Cc2c(C(F)(F)F)ccc3c2CC[C@H]3Oc2ccc3c(c2)OC[C@H]3CC(=O)O)CC1` [Example 21, {(S)-6-[(R)-4-(4-Propionyl-piperazin-1-ylmethyl)-5-trifluoromethyl-indan-1-yloxy]-2,3-dihydro-benzofuran-3-yl}-acetic acid], for which the EC50 is 12 nM.

Turning to `CC(C)OC(=O)N1CCN(Cc2c(C(F)(F)F)ccc3c2CC[C@H]3Oc2ccc3c(c2)OC[C@H]3CC(=O)O)CC1` [Example 22, {(S)-6-[(R)-4-(4-Isopropoxycarbonyl-piperazin-1-ylmethyl)-5-trifluoromethyl-indan-1-yloxy]-2,3-dihydro-benzofuran-3-yl}-acetic acid], the EC50 was found to be 14 nM.

Molecule `CC1(C)CN(Cc2c(C(F)(F)F)ccc3c2CC[C@H]3Oc2ccc3c(c2)OC[C@H]3CC(=O)O)CCO1` [Example 23, {(S)-6-[(R)-4-(2,2-Dimethyl-morpholin-4-ylmethyl)-5-trifluoromethyl-indan-1-yloxy]-2,3-dihydro-benzofuran-3-yl}-acetic acid] returned an EC50 of 7 nM.

In turn, `O=C(O)C[C@@H]1COc2cc(O[C@@H]3CCc4c3ccc(C(F)(F)F)c4CN3CC4CCC(C3)O4)ccc21` [Example 24, {(S)-6-[(R)-4-(8-Oxa-3-aza-bicyclo[3.2.1]oct-3-ylmethyl)-5-trifluoromethyl-indan-1-yloxy]-2,3-dihydro-benzofuran-3-yl}-acetic acid] yielded an EC50 of 14 nM.

As for `O=C(O)C[C@@H]1COc2cc(O[C@@H]3CCc4c3ccc(C(F)(F)F)c4CN3C4CCCC3CC4)ccc21` [Example 25, {(S)-6-[(R)-4-(8-Aza-bicyclo[3.2.1]oct-8-ylmethyl)-5-trifluoromethyl-indan-1-yloxy]-2,3-dihydro-benzofuran-3-yl}-acetic acid], the EC50 was 15 nM.

In turn, `CN1CCN(Cc2c(C(F)(F)F)ccc3c2CC[C@H]3Oc2ccc3c(c2)OC[C@H]3CC(=O)O)CC1=O` [Example 26, {(S)-6-[(R)-4-(4-Methyl-3-oxo-piperazin-1-ylmethyl)-5-trifluoromethyl-indan-1-yloxy]-2,3-dihydro-benzofuran-3-yl}-acetic acid] registered an EC50 of 26 nM. This EC50 is about 1.7-fold higher than that of the molecule before.

Take `O=C(O)C[C@@H]1COc2cc(O[C@@H]3CCc4c3ccc(C(F)(F)F)c4CN3CCn4ccnc4C3)ccc21` [Example 27, {(S)-6-[(R)-4-(5,6-Dihydro-8H-imidazo[1,2-a]pyrazin-7-ylmethyl)-5-trifluoromethyl-indan-1-yloxy]-2,3-dihydro-benzofuran-3-yl}-acetic acid]: the EC50 was 17 nM.
